This note sets out measurements from ChEMBL document CHEMBL1157539, “Thousands of chemical starting points for antimalarial lead identification” (Nature, 2010).

In the test the test system is Plasmodium falciparum. The test can be described thus: GSK_TCMDC: Inhibition of Plasmodium falciparum 3D7 in whole erythrocytes, using parasite LDH activity as an index of growth. As to conditions: Plasmodium falciparum, 3D7. The test is classed as functional, organism-based.

`COc1c(C2=CCN(CCCCNC(=O)c3ccc(-c4ccc(C#N)cc4)cc3)CC2)c(C)cc2c1C(C)(C)CCC2(C)C` had an XC50 of 947 nM.
Turning to `CN1CCN(Cc2ccc(-c3ccc4c(Nc5ccc(Oc6ccccc6)cc5)ccnc4c3)o2)CC1`, the XC50 came to 177 nM.
Compound `Cn1nccc1C(=O)NCCNCc1ccc(-c2ccc(-c3nc4ccccc4[nH]3)s2)cc1` displayed an XC50 of 560 nM.
Regarding `CCC[C@@H]([C@@H](CC1CCCCC1)C(=O)N[C@H](C(=O)Nc1nccs1)C(C)(C)SCCNC(=O)OCC)N(O)C=O`, the XC50 is 83.4 nM.
In the case of `COC(=O)c1ccc(CC(C)NCC(O)c2cccc(SC(F)(F)F)c2)cc1` (centres undefined), the XC50 was found to be 887 nM.
Regarding `O=C(Nc1nc(-c2ccccn2)cs1)c1ccc(Br)s1`, the XC50 was found to be 1060 nM.
Regarding `CC(CN(C)C)Oc1ccc2nc(-c3cccc(OCc4ccccc4)c3)[nH]c2c1C#N` (centres undefined), the XC50 worked out at 407 nM.
Take `CCCc1cc(C(=O)N[C@@H](Cc2ccccc2)[C@H](O)CNC2CCOCC2)c(F)c(N2CCCCS2(=O)=O)c1`: the XC50 was 166 nM.
Take `Cn1c(-c2ccccc2)cc2c3c(=O)cc(C(F)(F)F)[nH]c3ccc21`: the XC50 worked out at 849 nM.
`Cc1cc(N2CCCC2)nc(Nc2ccc(NC(=O)C(C)C)cc2)n1` gave an XC50 of 1100 nM.
For `CC(C)Nc1cc(C(=O)N[C@@H](Cc2ccccc2)[C@H](O)CNC(C)(C)c2cccc(C(F)(F)F)c2)cc(N2CCCCS2(=O)=O)c1` the value was 79.4 nM; for `O=C(Nc1ccc2ccccc2c1)c1ccc(CN2CCC(Cc3ccccc3)CC2)cc1`, 876 nM.
`Cc1nc2ccc(S(=O)(=O)Nc3ccc(C(=O)N[C@@H](CCC(=O)O)C(=O)O)cc3)cc2c(=O)[nH]1` showed an XC50 of 1010 nM.
To `COc1ccccc1N1CCN(CCCCNC(=O)c2ccc(NC(=O)c3cc(Cl)cc(Cl)c3)cc2)CC1` belongs 458 nM.
The compound `O=C(Nc1cccc(C(F)(F)F)c1)Nc1ccc(F)c([N+](=O)[O-])c1` displayed an XC50 of 696 nM.
`O=C(Nc1ccc(Cn2nc(Cl)c(N3CCCNCC3)cc2=O)cc1)c1ccc(-c2ccccc2)cc1` showed an XC50 of 713 nM.
`O=C(Nc1cccc(-c2ccc(-c3nc4cc(C(F)(F)F)ccc4[nH]3)cc2)c1)Nc1ccc(F)c(F)c1F` gave an XC50 of 259 nM.
Consider `Cc1cccc2nc(-c3ccc(-c4cccc(NC(=O)Nc5cccc(C#N)c5)c4)cc3)[nH]c12`, for which the XC50 is 544 nM.
In turn, `COc1ccc(-c2cccc(NC(=O)c3ccc(F)cc3)c2)cc1CN1CCCN(C)CC1` came in with an XC50 of 833 nM.
Take `CC(=O)c1cccc(S(=O)(=O)NCCCNc2nc3cc(C)cc(C)c3cc2C#N)c1`: the XC50 stood at 914 nM.
`COc1ccc(O)cc1/C=N/Nc1ccnc2cc(Cl)ccc12` displayed an XC50 of 544 nM.
Take `CCCCCN1CCN(Cc2cccc(NC(=O)c3ccc(Cl)c(Cl)c3)c2)CC1`: the XC50 worked out at 857 nM.
Compound `CCCNCc1ccc(-c2ccc(CN(CC3CCCO3)C(=O)C3CC(=O)c4ccccc43)cc2)nc1` (centres undefined) had an XC50 of 860 nM.
Regarding `NC1CCCN(Cc2ccc(-c3ccc(-c4nc5cc(F)ccc5[nH]4)s3)cc2)C1` (centres undefined), the XC50 turned out to be 177 nM.
For `O=C(Nc1cccc(-c2cccc(-c3nc4ccccc4[nH]3)c2)c1)c1cccnc1` the value was 646 nM.
Take `CCN(CC)CCN(Cc1ccc(-c2ccc(C(F)(F)F)cc2)cc1)C(=O)Cn1c(CCc2ccc(F)cc2)nc(=O)c2ccccc21`: the XC50 worked out at 1070 nM.
Regarding `CN(C)Cc1c(O)ccc2[nH]c(-c3ccc(OC(F)(F)F)cc3)nc12`, the XC50 was 727 nM.
`COc1cc(C=CC(=O)N2CCC(CN3CCC(c4c[nH]c5ccccc45)CC3)CC2)cc(OC)c1`: the XC50 was found to be 804 nM.
The compound `Cc1ccc(NC(=O)Cc2noc(CC3CCCN3C(=O)N[C@@H](C)c3ccccc3)n2)cc1` (some centres undefined) came in with an XC50 of 369 nM.
For the compound `Oc1ccc(CCCc2cc(Oc3c(I)cc(CCc4ncc[nH]4)cc3I)ccc2O)cc1`, the XC50 stood at 873 nM.
On to `CCOc1ccccc1CCNC(C)Cc1ccc(C(=O)Nc2ccc(CC(C)NCCc3cccc(Cl)c3)cc2)cc1` (centres undefined), for which the XC50 amounted to 539 nM.
In turn, `c1ccc(-c2nc(Nc3nc4ccccc4[nH]3)[nH]c2-c2ccccc2)cc1` had an XC50 of 619 nM.
To `CC(=O)N(C)C1CCN(Cc2cccc(-c3ccc(-c4nc5cc(C(F)(F)F)ccc5[nH]4)cc3)c2)C1` (centres undefined) belongs 563 nM; to `ON=C1CCc2cc(-c3cc(-c4ccc(OC5CCNCC5)cc4)oc3-c3ccncc3)ccc21`, 157 nM; to `CN1CCN(CCCN(Cc2ccc(-c3cccc(CNC4CCCC4)c3)cc2)C(=O)/C=C/c2ccccc2)CC1`, 1330 nM.
In turn, `CCCCN1Cc2c(n(CC(=O)Nc3ccccc3)c3cc(-c4ccccc4)nn3c2=O)C1=O` registered an XC50 of 811 nM.
Consider `CCn1c(C)cc(C=C2SC(=Nc3ccccc3)NC2=O)c1C`, for which the XC50 amounted to 680 nM.
Consider `Cc1nc2ccccc2c(O)c1-c1ccc(Cl)cc1`, for which the XC50 worked out at 999 nM.
`Fc1ccc(OC2CN(c3nccc(NCc4ccccc4Cl)n3)C2)cc1` yielded an XC50 of 898 nM.
For `Cc1cc(NC(=O)Nc2cccc(C#N)c2)c2ccccc2n1`, the XC50 was 581 nM.
As for `Cc1cc(C(=O)NCc2ccc(-c3c(C)noc3C)cc2)n(-c2ccc(Cl)cc2)n1`, the XC50 came out at 531 nM.
The compound `S=C(NCCCCCN1CCC(c2c[nH]c3ccccc23)CC1)Nc1ccc(Cl)c(Cl)c1` gave an XC50 of 709 nM.
Take `CC(=O)Nc1ncc(C(=O)Nc2cccc(-c3ccc(-c4nc5cc(C(F)(F)F)ccc5[nH]4)cc3)c2)s1`: the XC50 worked out at 590 nM.
Consider `CCC[C@@H](/C=N/N(C)C(=O)OC(C)(C)C)NC(=O)[C@H](CC(C)C)NC(=O)c1cc2cccc(OC)c2o1`, for which the XC50 is 1080 nM.
In turn, `O=C(Nc1ccc(Cl)cc1Cl)N[C@H]1CCN(CCCCCNC(=O)C2CC2c2ccc(Cl)c(Cl)c2)C1` (some centres undefined) gave an XC50 of 989 nM.
For `CCn1c(-c2nonc2N)nc2c(-c3ccccc3)ncc(OCCCNCCCN3CCOCC3)c21` the value was 669 nM; for `CCc1cccc2sc(N3CCN(C(=O)c4ccc([N+](=O)[O-])o4)CC3)nc12`, 773 nM.
For `CCc1cccc2c(C#N)cn(CC(=O)Nc3ccc(OC)cc3)c12`, the XC50 came to 772 nM.
In the case of `Clc1ccc2c(N3CCCNCC3)ccnc2c1`, the XC50 was found to be 482 nM.
For the compound `CN(C)c1ccc(-c2csc(C(=O)NCC3CCN(Cc4ccc(C(C)(C)C)cc4)C3)c2)cc1` (centres undefined), the XC50 came to 986 nM.
For `NCc1ccc(-c2ccc3c(N)nccc3c2)cc1` the value was 885 nM; for `CC(C)C[C@@H](/C=N/N1CCNC1=O)NC(=O)[C@H](CC(C)C)NC(=O)c1ccc(OCCN2CCOCC2)cc1`, 190 nM; for `COc1ccc(-c2nc(NC(=O)COc3ccc(C(C)=O)cc3)sc2C)cc1`, 713 nM.
`C[C@H](NC(=O)c1cc(-c2ccc(C(C)(C)C)cc2)no1)C(=O)O.C[C@H](NC(=O)c1conc1-c1ccc(C(C)(C)C)cc1)C(=O)O` showed an XC50 of 140 nM.
